Experimental data: ChEMBL document CHEMBL1139978, “Synthesis and radiopharmacological characterization of [11C]AL-438 as a nonsteroidal ligand for imaging brain glucocorticoid receptors” (Bioorg Med Chem Lett, 2007)

Tests used:
Heart = test: Biodistribution in corticosterone pretreated Wistar rat heart at 20 MBq, iv after 60 mins; format: ADME, organism-based; details: in vivo, 1 h
Blood [1] = test: Biodistribution in Wistar rat blood at 20 MBq, iv after 5 mins; format: ADME, organism-based; details: in vivo
Rattus norvegicus [2] = test: Biodistribution in Wistar rat rest of brain at 20 MBq, iv after 60 mins; format: ADME, organism-based; details: in vivo, 1 h
Spleen [3] = test: Biodistribution in Wistar rat spleen at 20 MBq, iv after 60 mins; format: ADME, organism-based; details: in vivo, 1 h
Hippocampus [4] = test: Biodistribution in Wistar rat hippocampus at 20 MBq, iv after 5 mins; format: ADME, organism-based; details: in vivo
Lung [5] = test: Biodistribution in Wistar rat lung at 20 MBq, iv after 5 mins; format: ADME, organism-based; details: in vivo
Pituitary gland [6] = test: Biodistribution in corticosterone pretreated Wistar rat pituitary at 20 MBq, iv after 60 mins; format: ADME, organism-based; details: in vivo, 1 h
Rattus norvegicus [7] = test: Biodistribution in Wistar rat brown fat at 20 MBq, iv after 60 mins; format: ADME, organism-based, Brown adipose tissue; details: in vivo, 1 h
Pancreas [8] = test: Biodistribution in Wistar rat pancreas at 20 MBq, iv after 5 mins; format: ADME, organism-based; details: in vivo
Muscle tissue [9] = test: Biodistribution in Wistar rat muscle at 20 MBq, iv after 60 mins; format: ADME, organism-based; details: in vivo, 1 h
Rattus norvegicus [10] = test: Biodistribution in Wistar rat fat at 20 MBq, iv after 60 mins; format: ADME, organism-based, Adipose tissue; details: in vivo, 1 h
Blood [11] = test: Biodistribution in corticosterone pretreated Wistar rat blood at 20 MBq, iv after 60 mins; format: ADME, organism-based; details: in vivo, 1 h
Rattus norvegicus [12] = test: Biodistribution in corticosterone pretreated Wistar rat fat at 20 MBq, iv after 60 mins; format: ADME, organism-based, Adipose tissue; details: in vivo, 1 h
Cortex [13] = test: Biodistribution in Wistar rat cortex at 20 MBq, iv after 5 mins; format: ADME, organism-based; details: in vivo
Rattus norvegicus [14] = test: Biodistribution in corticosterone pretreated Wistar rat testis at 20 MBq, iv after 60 mins; format: ADME, organism-based; details: in vivo, 1 h
Muscle tissue [15] = test: Biodistribution in corticosterone pretreated Wistar rat muscle at 20 MBq, iv after 5 mins; format: ADME, organism-based; details: in vivo
Adrenal = test: Biodistribution in corticosterone pretreated Wistar rat adrenal at 20 MBq, iv after 5 mins; format: ADME, organism-based, Adrenal tissue; details: in vivo
Rattus norvegicus [16] = test: Biodistribution in corticosterone pretreated Wistar rat rest of brain at 20 MBq, iv after 5 mins; format: ADME, organism-based; details: in vivo
Rattus norvegicus [17] = test: Biodistribution in Wistar rat rest of brain at 20 MBq, iv after 5 mins; format: ADME, organism-based; details: in vivo
Liver [18] = test: Biodistribution in Wistar rat liver at 20 MBq, iv after 5 mins; format: ADME, organism-based; details: in vivo
Pancreas [19] = test: Biodistribution in Wistar rat pancreas at 20 MBq, iv after 60 mins; format: ADME, organism-based; details: in vivo, 1 h
Femur [20] = test: Biodistribution in corticosterone pretreated Wistar rat femur at 20 MBq, iv after 5 mins; format: ADME, organism-based; details: in vivo
Liver [21] = test: Biodistribution in corticosterone pretreated Wistar rat liver at 20 MBq, iv after 5 mins; format: ADME, organism-based; details: in vivo
Cerebellum [22] = test: Biodistribution in corticosterone pretreated Wistar rat cerebellum at 20 MBq, iv after 60 mins; format: ADME, organism-based; details: in vivo, 1 h
Lung [23] = test: Biodistribution in corticosterone pretreated Wistar rat lung at 20 MBq, iv after 60 mins; format: ADME, organism-based; details: in vivo, 1 h
Cortex [24] = test: Biodistribution in corticosterone pretreated Wistar rat cortex at 20 MBq, iv after 5 mins; format: ADME, organism-based; details: in vivo
Blood [25] = test: Biodistribution in corticosterone pretreated Wistar rat blood at 20 MBq, iv after 5 mins; format: ADME, organism-based; details: in vivo
Cerebellum [26] = test: Biodistribution in Wistar rat cerebellum at 20 MBq, iv after 5 mins; format: ADME, organism-based; details: in vivo
Cerebellum [27] = test: Biodistribution in corticosterone pretreated Wistar rat cerebellum at 20 MBq, iv after 5 mins; format: ADME, organism-based; details: in vivo
Hippocampus [28] = test: Biodistribution in corticosterone pretreated Wistar rat hippocampus at 20 MBq, iv after 5 mins; format: ADME, organism-based; details: in vivo
Spleen [29] = test: Biodistribution in Wistar rat spleen at 20 MBq, iv after 5 mins; format: ADME, organism-based; details: in vivo
Rattus norvegicus [30] = test: Biodistribution in corticosterone pretreated Wistar rat brown fat at 20 MBq, iv after 5 mins; format: ADME, organism-based, Brown adipose tissue; details: in vivo
Pituitary gland [31] = test: Biodistribution in corticosterone pretreated Wistar rat pituitary at 20 MBq, iv after 5 mins; format: ADME, organism-based; details: in vivo
Harderian gland [32] = test: Biodistribution in Wistar rat harderian gland at 20 MBq, iv after 60 mins; format: ADME, organism-based; details: in vivo, 1 h
Hippocampus [33] = test: Biodistribution in corticosterone pretreated Wistar rat hippocampus at 20 MBq, iv after 60 mins; format: ADME, organism-based; details: in vivo, 1 h
Femur [34] = test: Biodistribution in corticosterone pretreated Wistar rat femur at 20 MBq, iv after 60 mins; format: ADME, organism-based; details: in vivo, 1 h
Harderian gland [35] = test: Biodistribution in Wistar rat harderian gland at 20 MBq, iv after 5 mins; format: ADME, organism-based; details: in vivo
Kidney = test: Biodistribution in corticosterone pretreated Wistar rat kidney at 20 MBq, iv after 60 mins; format: ADME, organism-based; details: in vivo, 1 h
Rattus norvegicus [36] = test: Biodistribution in Wistar rat fat at 20 MBq, iv after 5 mins; format: ADME, organism-based, Adipose tissue; details: in vivo
Rattus norvegicus [37] = test: Biodistribution in Wistar rat testis at 20 MBq, iv after 60 mins; format: ADME, organism-based; details: in vivo, 1 h

C=CCC1Oc2cccc(O[11CH3])c2-c2ccc3c(c21)C(C)=CC(C)(C)N3 (stereo not given)
Drug uptake (Heart): 0.67 % ID/g | Drug uptake (Blood [1]): 0.52 % ID/g | Drug uptake (Rattus norvegicus [2]): 0.56 % ID/g | Drug uptake (Spleen [3]): 1.06 % ID/g | Drug uptake (Hippocampus [4]): 1.3 % ID/g | Drug uptake (Lung [5]): 1.44 % ID/g | Drug uptake (Pituitary gland [6]): 1.76 % ID/g | Drug uptake (Rattus norvegicus [7]): 8.54 % ID/g | Drug uptake (Pancreas [8]): 2.79 % ID/g | Drug uptake (Muscle tissue [9]): 0.59 % ID/g | Drug uptake (Rattus norvegicus [10]): 3.11 % ID/g | Drug uptake (Blood [11]): 0.74 % ID/g | Drug uptake (Rattus norvegicus [12]): 2.43 % ID/g | Drug uptake (Cortex [13]): 1.67 % ID/g | Drug uptake (Rattus norvegicus [14]): 0.5 % ID/g | Drug uptake (Muscle tissue [15]): 0.9 % ID/g | Drug uptake (Adrenal): 8.68 % ID/g | Drug uptake (Rattus norvegicus [16]): 1.46 % ID/g | Drug uptake (Rattus norvegicus [17]): 1.52 % ID/g | Drug uptake (Liver [18]): 2.65 % ID/g | Drug uptake (Pancreas [19]): 1.99 % ID/g | Drug uptake (Femur [20]): 0.85 % ID/g | Drug uptake (Liver [21]): 3.04 % ID/g | Drug uptake (Cerebellum [22]): 0.64 % ID/g | Drug uptake (Lung [23]): 1.03 % ID/g | Drug uptake (Cortex [24]): 1.55 % ID/g | Drug uptake (Blood [25]): 0.52 % ID/g | Drug uptake (Cerebellum [26]): 1.39 % ID/g | Drug uptake (Cerebellum [27]): 1.46 % ID/g | Drug uptake (Hippocampus [28]): 1.35 % ID/g | Drug uptake (Spleen [29]): 0.97 % ID/g | Drug uptake (Rattus norvegicus [30]): 5 % ID/g | Drug uptake (Pituitary gland [31]): 2.45 % ID/g | Drug uptake (Harderian gland [32]): 3.35 % ID/g | Drug uptake (Hippocampus [33]): 0.68 % ID/g | Drug uptake (Femur [34]): 0.7 % ID/g | Drug uptake (Harderian gland [35]): 1.68 % ID/g | Drug uptake (Kidney): 1.13 % ID/g | Drug uptake (Rattus norvegicus [36]): 1.19 % ID/g | Drug uptake (Rattus norvegicus [37]): 0.52 % ID/g
